# Read-outs that look alike come from different tables or passages of the source.
# Assays:
# [1] = log P by HPLC on reversed-phase columns (EEC Directive 79/831 Annex V.A8); type: physicochemical
# [2] = test system: green peach aphid (Myzus persicae); test: Myzus test (MYZUPE spray treatment); type: in vivo; settings: for pest or weed control at 500 g/ha / pest or weed control at 100 g/ha: read-out: activity in % (aphids killed)
# Boophilus microplus = Boophilus microplus test (BOOPMI injection); type: in vivo; settings: Rhipicephalus microplus, 168 h; 20 μg/animal, injection into the abdomen, after 7 days; read-out: activity in % (no fertile eggs laid)
# Protocol: (§1) Solvent: dimethyl sulphoxide
# The active compound solution is injected into the abdomen (Boophilus microplus), and the animals are transferred into dishes and stored in a climate-controlled room.
# The activity is assessed by […] of fertile eggs. 100% means that none of the ticks has laid any fertile eggs.
# [3] = test system: larvae of the mustard beetle (Phaedon cochleariae); test: Phaedon test (PHAECO spray treatment); settings: Phaedon cochleariae, 168 h, read-out: activity in % (beetle larvae killed)
# [4] = test system: caterpillars of the armyworm (Spodoptera frugiperda); test: Spodoptera frugiperda test (SPODFR spray treatment); type: in vivo; settings: Spodoptera frugiperda, 168 h, read-out: activity in % (caterpillars killed)
# Lucilia cuprina larvae = test: Lucilia cuprina test (LUCICU); type: in vivo; settings: 1152 h, read-out: activity (kill in %)
# Protocol: as §1
# Vessels containing horse meat treated with the active ingredient preparation of the desired concentration are populated with about 20 Lucilia cuprina larvae.
# (§2) After 48 days, the kill in % is determined.
# adult Musca domestica = test: Musca domestica test (MUSCDO); type: in vivo; settings: 1152 h, after 48 days, read-out: activity (kill in %)
# Protocol: as §1
# Vessels containing a sponge treated with the active compound preparation of the desired concentration are populated with adult Musca domestica.
# as §2
# [5] = reversed-phase C18 HPLC column, pH 2.7, HPLC reversed-phase C18, acidic range pH 2.7 (HCOOH), only or first value of the cell, read-out: log P
# [6] = Myzus persicae, 144 h, application rate 500 g/ha, after 6 days
# [7] = application rate 500 g/ha, after 7 days
# [8] = Myzus persicae, 144 h, application rate 100 g/ha, after 6 days
# [9] = application rate 100 g/ha, after 7 days
Compound,"chromatographic logP [1, 5]",pest or weed control at 0.02 mg (Boophilus microplus) [%],pest or weed control at 100 g/ha [3] [%],"chromatographic logP ([1]; pH 2.7, log P)",pest or weed control at 100 g/ha [4] [%],"pest or weed control at 100 g/ha ([2]; Myzus persicae, 144 h) [%]",also measured
Cc1cc(Cl)cc(C(=O)NC2CCN(Cc3ccccc3)C2)c1NC(=O)c1cc(Cn2nnc(C(F)(F)F)n2)nn1-c1ncccc1Cl (stereo not drawn) [Example 31],2.03,100,–,–,–,–,"pest or weed control at 500 g/ha [2, 6]: 100%; pest or weed control at 500 g/ha [3]: 100%; pest or weed control at 500 g/ha [4, 7]: 100%; pest or weed control at 100 ppm (Lucilia cuprina larvae; 100 ppm, after 48 days): 100%"
Cc1cc(C#N)cc(C(=O)N[C@@H]2CCOC2=O)c1NC(=O)c1cc(Cn2nnc(C(F)(F)C(F)(F)F)n2)nn1-c1ncccc1Cl [Example 44],2.9,100,100,–,–,–,"pest or weed control at 100 ppm (adult Musca domestica): 100%; pest or weed control at 100 g/ha [2, 8]: 90%; pest or weed control at 100 g/ha [4, 9]: 100%; pest or weed control at 100 ppm (Lucilia cuprina larvae; 100 ppm, after 48 days): 100%"
Cc1cc(Cl)cc(C(=O)NC2CCS(=O)(=O)C2)c1NC(=O)c1cc(Cn2nnc(C(F)(F)C(F)(F)F)n2)nn1-c1ncccc1Cl (stereo not drawn) [Example 37],3.13,100,–,–,–,–,"pest or weed control at 100 ppm (adult Musca domestica): 80%; pest or weed control at 500 g/ha [2, 6]: 100%; pest or weed control at 500 g/ha [3]: 100%; pest or weed control at 500 g/ha [4, 7]: 100%; pest or weed control at 100 ppm (Lucilia cuprina larvae; 100 ppm, after 48 days): 100%"
Cc1cc(Cl)cc(C(=O)N[C@@H]2CCOC2=O)c1NC(=O)c1cc(Cn2nnc(C(F)(F)C(F)(F)F)n2)nn1-c1ncccc1Cl [Example 43],–,100,100,3.21,100,–,"log P (second value after the slash) ([1]; pH 2.7): 2.92; pest or weed control at 500 g/ha ([2]; Myzus persicae, 144 h): 100%; pest or weed control at 100 ppm (Lucilia cuprina larvae): 100%"
Cc1cc(Cl)cc(C(=O)NC2COC2)c1NC(=O)c1cc(Cn2cc(Br)c(C(F)(F)F)n2)nn1-c1ncccc1Cl [Example 24],–,100,100,3.2,100,–,pest or weed control at 100 ppm (Lucilia cuprina larvae): 100%
Cc1cc(C#N)cc(C(=O)NC2CCS(=O)(=O)C2)c1NC(=O)c1cc(Cn2nnc(C(F)(F)C(F)(F)F)n2)nn1-c1ncccc1Cl (stereo not drawn) [Example 38],2.82,100,–,–,–,–,"pest or weed control at 100 ppm (adult Musca domestica): 100%; pest or weed control at 500 g/ha [2, 6]: 100%; pest or weed control at 500 g/ha [3]: 100%; pest or weed control at 500 g/ha [4, 7]: 100%; pest or weed control at 100 ppm (Lucilia cuprina larvae; 100 ppm, after 48 days): 100%"
Cc1cc(Cl)cc(C(=O)NC2CCN(Cc3ccccc3)C2)c1NC(=O)c1cc(Cn2nnc(C(F)(F)C(F)(F)F)n2)nn1-c1ncccc1Cl (stereo not drawn) [Example 33],2.3,100,–,–,–,–,"pest or weed control at 500 g/ha [3]: 100%; pest or weed control at 500 g/ha [4, 7]: 100%; pest or weed control at 100 ppm (Lucilia cuprina larvae; 100 ppm, after 48 days): 100%"
Cc1cc(C#N)cc(C(=O)NC2CCSC2=O)c1NC(=O)c1cc(Cn2nnc(C(F)(F)C(F)(F)F)n2)nn1-c1ncccc1Cl (stereo not drawn) [Example 40],3.25,100,–,–,–,–,"pest or weed control at 500 g/ha [3]: 100%; pest or weed control at 500 g/ha [4, 7]: 100%; pest or weed control at 100 ppm (Lucilia cuprina larvae; 100 ppm, after 48 days): 100%"
Cc1cc(Cl)cc(C(=O)NC2CCS(=O)(=O)C2)c1NC(=O)c1cc(Cn2nnc(C(F)(F)F)n2)nn1-c1ncccc1Cl (stereo not drawn) [Example 34],–,–,100,2.78,100,100,–
Cc1cc(Br)cc(C(=O)NC2COC2)c1NC(=O)c1cc(Cn2nnc(C(F)(F)F)n2)nn1-c1ncccc1Cl [Example 3],–,–,100,2.87,100,100,–
Cc1cc(Cl)cc(C(=O)NN2CCN(C)C2=O)c1NC(=O)c1cc(Cn2nnc(C(F)(F)F)n2)nn1-c1ncccc1Cl [Example 41],–,–,100,2.64,100,80,–
Cc1cc(F)cc(C(=O)NC2COC2)c1NC(=O)c1cc(Cn2nnc(C(F)(F)F)n2)nn1-c1ncccc1Cl [Example 4],–,–,100,2.53,100,100,–
O=C(NCc1ccc(Cl)cc1)c1cc(Cl)cc(F)c1NC(=O)c1cc(Cn2nnc(C(F)(F)F)n2)nn1-c1ncccc1Cl [Example 206],3.9,–,100,–,–,–,"pest or weed control at 100 g/ha [2, 8]: 100%; pest or weed control at 100 g/ha [4, 9]: 100%"
Cc1cc(Cl)cc(C(=O)NC(C)c2ccccc2F)c1NC(=O)c1cc(Cn2nnc(C(F)(F)F)n2)nn1-c1ncccc1Cl (stereo not drawn) [Example 87],–,–,100,3.98,100,80,–
Cc1cc(C#N)cc(C(=O)NC2COC2)c1NC(=O)c1cc(Cn2nnc(C(F)(F)F)n2)nn1-c1ncccc1Cl [Example 20],–,–,100,–,100,–,"log P ([1]; pH 2.7): 2.51; activity in % (aphids killed) ([2]; application rate 100 g/ha, after 6 days): 90%"
Cc1cc(C#N)cc(C(=O)NCc2ccccc2)c1NC(=O)c1cc(Cn2nnc(C(F)(F)F)n2)nn1-c1ncccc1Cl [Example 70],–,–,100,3.38,100,100,–
Cc1cc(Cl)cc(C(=O)NCc2ccc(OC(F)F)cc2)c1NC(=O)c1cc(Cn2nnc(C(F)(F)F)n2)nn1-c1ncccc1Cl [Example 152],3.87,–,100,–,–,–,"pest or weed control at 100 g/ha [2, 8]: 100%; pest or weed control at 100 g/ha [4, 9]: 100%"
Cc1cc(Cl)cc(C(=O)Nc2ccccc2)c1NC(=O)c1cc(Cn2nnc(C(F)(F)F)n2)nn1-c1ncccc1Cl [Example 72],–,–,100,3.81,100,80,–
Cc1cc(Cl)cc(C(=O)NCc2ccccc2OC(F)(F)F)c1NC(=O)c1cc(Cn2nnc(C(F)F)n2)nn1-c1ncccc1Cl [Example 150],3.81,–,100,–,–,–,"pest or weed control at 100 g/ha [2, 8]: 100%; pest or weed control at 100 g/ha [4, 9]: 100%"
Cc1cc(C#N)cc(C(=O)NCc2ccc(S(F)(F)(F)(F)F)cc2)c1NC(=O)c1cc(Cn2nnnc2C(F)(F)F)nn1-c1ncccc1Cl [Example 69],3.68,100,100,–,–,–,"pest or weed control at 20 ppm (adult Musca domestica; 20 ppm): 80%; pest or weed control at 100 g/ha [4, 9]: 100%; pest or weed control at 100 ppm (Lucilia cuprina larvae; 100 ppm, after 48 days): 100%"
Cc1cc(C#N)cc(C(=O)NC2CCS(=O)(=O)C2)c1NC(=O)c1cc(Cn2nnc(C(F)(F)F)n2)nn1-c1c(Cl)cccc1Cl (stereo not drawn) [Example 54],2.95,–,100,–,–,–,"pest or weed control at 100 g/ha [2, 8]: 80%; pest or weed control at 100 g/ha [4, 9]: 100%"
Cc1cc(C#N)cc(C(=O)NC2CCN(C)C2=O)c1NC(=O)c1cc(Cn2nnc(C(F)(F)F)n2)nn1-c1ncccc1Cl (stereo not drawn) [Example 49],–,–,100,2.39,100,100,log P (second value after the slash) ([1]; pH 2.7): 2.19
"Cc1cc(C#N)cc(C(=O)NC2CCS(=O)(=O)C2)c1NC(=O)c1cc(Cn2nnc(C(F)(F)F)n2)nn1-c1ncccc1Cl (stereo not drawn) [Example 29, 1-(3-chloropyridin-2-yl)-N-{4-cyano-2-[(1,1-dioxidotetrahydrothiophen-3-yl)carbamoyl]-6-methylphenyl}-3-{[5-(trifluoromethyl)-2H-tetrazol-2-yl]methyl}-1H-pyrazole-5-carboxamide]",–,–,–,2.47,–,–,"log P (second value after the slash) ([1]; pH 2.7): 2.17; pest or weed control at 500 g/ha ([2]; Myzus persicae, 144 h): 100%; inhibition at 100 g/ha ([2]; Myzus persicae, 144 h, 100 g/ha, 6 d, comparison with prior art): 100%; pest or weed control at 500 g/ha [3]: 100%; pest or weed control at 500 g/ha [4]: 100%"
Cc1cc(Cl)cc(C(=O)NC(C)c2ccc(Cl)cn2)c1NC(=O)c1cc(Cn2nnc(C(F)(F)F)n2)nn1-c1ncccc1Cl (stereo not drawn) [Example 236],–,–,100,3.63,100,90,–
Cc1cc(C#N)cc(C(=O)NC2CSC2)c1NC(=O)c1cc(Cn2nnc(C(F)(F)F)n2)nn1-c1ccccc1Cl [Example 25],3.46,–,100,–,–,–,"pest or weed control at 100 g/ha [2, 8]: 100%; pest or weed control at 100 g/ha [4, 9]: 100%"
Cc1cc(C#N)cc(C(=O)NC2COC2)c1NC(=O)c1cc(Cn2nnc(C(F)(F)C(F)(F)F)n2)nn1-c1ncccc1Cl [Example 14],–,–,100,2.87,100,90,–
